Assay results: patent publication US7052850B2, “Isolated human EDG-4 receptor” (priority 1997, dated 2006)

What was measured:
Type in all cases: cell-based
rat EDG-4 = rat EDG-4 (Rattus norvegicus, UniProt P47752); test: IL-8 response in COS-1 cells transfected with rat EDG-4 expression plasmid; set-up: transient transfection with a eukaryotic expression vector expressing full-length rat edg-4 cDNA; expressed in transfected cells; settings: COS-1, EDG-4 expression plasmid; 5 μm S1P overnight
EDG-6 [1] = biological target: T1, EDG-6 (Homo sapiens, UniProt Q9HBW0); test: AP-1 reporter in 293-EBNA cells, EDG-6; settings: 10 μM LPA
T1 construct: expressed in transfected cells; host or cells: 293-EBNA
T1 sequence (Q9HBW0 with tags, fused parts or gaps): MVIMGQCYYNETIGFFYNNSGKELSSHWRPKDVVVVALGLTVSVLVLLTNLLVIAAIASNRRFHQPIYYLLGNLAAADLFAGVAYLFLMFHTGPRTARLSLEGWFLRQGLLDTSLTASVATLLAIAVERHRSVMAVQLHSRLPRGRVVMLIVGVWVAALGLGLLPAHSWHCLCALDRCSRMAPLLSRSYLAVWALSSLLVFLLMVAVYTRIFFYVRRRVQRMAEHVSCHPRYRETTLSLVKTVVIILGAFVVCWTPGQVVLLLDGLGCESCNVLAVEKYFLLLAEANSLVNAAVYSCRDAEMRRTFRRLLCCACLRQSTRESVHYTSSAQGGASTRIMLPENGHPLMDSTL
From the text: (§1) LPA, like S1P, is abundant in serum, but not plasma. Moreover, LPA is produced as a consequence of phospholipase A2 with or without the contribution of phospholipase D (depending on the phospholipid substrate). […] To date we have identified three subtypes of edg receptors that respond to LPA as an agonist. These are EDG-2, […] (referred to also as LPA1, LPA2 and LPA3, respectively (Chun, J, Contos, JJA and Munroe, DG. 1998. A growing family of receptor genes for lysophophatidid acid (LPA) and other lyso-phospholipids. Cell Biochem Biophys (in press)). The EDG-5 receptor is set out in co-pending U.S. application Ser. No. 08/997,803 to MUNROE et al., incorporated herein to reference and the amino acid sequence and cDNA sequence for the EDG-6 receptor is set out in FIGS. 21 and 22, respectively. To determine whether these receptors might mediate inflammatory responses, each was cotransfected separately with SRE, NF-κB or AP-1 reporter genes. […] This transcription factor, like NF-κB has been implicated in inflammatory and neoplastic signal transduction, though the gene targets of its action are largely distinct from those of NF-κB (Adcock I M. 1997. Transcription factors as activators of gene transcription; AP-1 and NF-κB. Monaldi Arch Chest Dis 52:178–186. Review). […]

EDG-6 [2] = biological target: T1, EDG-6; test: NF-κB reporter in 293-EBNA cells, EDG-6; settings: 10 μM LPA overnight
From the text: as §1

Chain of rat EDG-4 (P47752 whole entry): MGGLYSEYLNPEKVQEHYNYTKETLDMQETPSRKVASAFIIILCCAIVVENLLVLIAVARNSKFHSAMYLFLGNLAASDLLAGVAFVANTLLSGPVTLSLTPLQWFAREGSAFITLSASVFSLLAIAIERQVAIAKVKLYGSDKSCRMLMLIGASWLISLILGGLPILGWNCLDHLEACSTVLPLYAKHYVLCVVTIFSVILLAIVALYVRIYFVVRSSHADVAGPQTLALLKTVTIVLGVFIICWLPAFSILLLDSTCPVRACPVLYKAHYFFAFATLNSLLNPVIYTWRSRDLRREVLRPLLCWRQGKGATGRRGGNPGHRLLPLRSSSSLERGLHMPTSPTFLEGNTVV

induction of the AP-1 reporter (EDG-6 [1])	activation of the NF-κB reporter (EDG-6 [2])	Compound	increase in IL-8 release compared to untreated cells (rat EDG-4)
–	–	CCCCCCCCCCCCC/C=C/[C@@H](O)[C@@H](N)COP(=O)(O)O [S1P, sphingosine 1-phosphate]	2 fold
strongly induced	3–4 fold	lysophosphatidic acid [LPA]	–
